Results from patent publication US7632814B2, “HYD1 peptides as anti-cancer agents” (University of South Florida, priority 2006, dated 2009).
Where no end group is shown, it is not given here. [ ]: non-standard residue; d: D form.

Legend:
Assay type in all cases: cell-based
MM1.S cells = system: MM1.S cells
Text: FIGS. 4A-4E are a series of graphs showing that the BMS model protects myeloma MM1.S cells from melphalan (FIG. 4A), mitoxantrone (FIG. 4B), and dexamethasone (FIGS. 4C-4E) induced cell death. SF+A model confers the highest levels of resistance to cell death induced by either mitoxantrone or melphalan.
FIGS. 10A-10E are a series of graphs showing that the BMS model protects MM1.S cells from melphalan (FIG. 10A), mitoxantrone (FIG. 10B), dexamethasone (FIGS. 10C and 10D), and velcade (FIG. 10E) induced cell death.
The CAM-DR phenotype is tested by removing unadhered cells before the addition of drug. […] For this reason, the inventors chose to test for the reversal of drug resistance in adherent cells by using a bone marrow stroma (BMS) model (HS-5 cell line). In the BMS model of drug resistance, cell-cell adhesion is mediated by multiple adhesion moieties and thus the addition of a β1 blocking antibody is not sufficient to block tumor cell adhesion to the BMS cell line. The BMS model system is described in FIGS. 3A-D. These models have facilitated the availability of four discrete hematopoietic tumor populations. The first tumor population (FIG. 3A) is maintained in a traditional suspension culture in RPMI media containing 10% FBS (RM). Conditioned media is prepared by adding fresh RPMI media containing 10% FBS to HS-5 cells which are 75% confluent. After three hours, the media is then collected, centrifuged and stored at −70 for up to one month. This tumor cell culture condition is referred to as CM (FIG. 3B). The third tumor cell population consists of placing HS-5 cells in the bottom chamber and tumor cell in a top chamber that is separated by a membrane allowing for diffusion of soluble factors (see FIG. 3C). This condition is distinct from CM because it considers dynamic soluble interactions between the tumor cell and BMS cells (see FIG. 3D). […] Regardless of the cytotoxic agent used, the levels of drug resistance are greatest for myeloma cells which are adherent to the BMS. […]

prostate tumor cell = assay: Random haptotaxis (cell migration) on laminin 322 (laminin 5); conditions: scrambled peptide HYDS indicates 100% cell migration
Text: Defining the minimal region of HYD1 necessary to potentiate drug-induced apoptosis in suspension and adherent cultures is of interest. Below is a study to determine the minimal HYD1 sequence required to block prostate tumor cell migration. Similar studies as those outlined below and using the same peptide sequences will be used to determine the minimal amino acid sequence required for potentiation of drug induced apoptosis.
This response to the peptide is independent of disrupting adhesion to laminin 322 (laminin 5) since the cells were grown on a ligand before treatment with the peptide. […] All other alanine-substitution mutants resulted cell migration, i.e., a loss of peptide activity.
Using the negative control scrambled peptide, HYDS (SEQ ID NO:44), to indicate 100% cell migration, several truncated peptides including, ikmviswkg (SEQ ID NO:22), kmviswkg (SEQ ID NO:39), and kikmviswk (SEQ ID NO:37) were effective at blocking cell migration by approximately 50%.

[1] = system: primary myeloma patient specimens; assay: Melphalan-induced cell death in primary myeloma patient specimens, FN-adherent vs suspension
Text: It has been reported that β1-integrin mediated adhesion of 8226 cells and K562 cells to FN blocked cell death induced by the alkylating agent melphalan (Damiano J S, et al. Blood. 1999; 93:1658-1667; Hazlehurst L A, et al. Cancer Res. 2003; 63:7900-7906). In order to determine whether the CAM-DR phenotype is a potential mechanism of clinical de novo drug resistance, melphalan-induced cell death was recently measured in primary myeloma patient specimens (See FIG. 2). Plasma cells were identified by either positive Kappa or Lambda staining, and apoptotic myeloma cells were identified by the Tunnel assay. 9 out of 10 patient specimens were protected from melphalan induced cell death when adherent to FN compared to suspension cultures.

H929 cells = assay: Detection of apoptosis, annexin V staining and FACS, suspension culture; conditions: H929 cells, 200 μM ZVAD-FMK 30 minutes prior, apoptosis at 24 hours, annexin/PI
Description: (§1) FIG. 17 is a graph showing that HYD1 induces apoptosis as a single agent in 8226 and H929 cells cultured in suspension. 8226 and H929 cells were either treated with varying concentrations of HYD1 or vehicle control (equal volume sterile double distilled water) for 24 hours and apoptotic cells were detected by FACS analysis of annexin V positive cells. HYD1 specific apoptosis equals cell death due to peptide minus any apoptosis detected in control cells.
200 μM ZVAD-FMK was added to H929 cells for 30 minutes prior to the addition of either 75 μg/ml HYD1S or 15 μM Melphalan. Apoptosis was measured 24 hours after drug treatment by annexin/PI staining and apoptotic cells were detected by FACS analysis. Three independent experiments were performed and shown is a representative experiment.
Detection of Apoptosis. […] Blood, 1999; 93:1658-1667). The assay was performed in triplicate and 3 independent experiments were performed. Caspase 3 and 8 activity was measured at 6 and 24 hrs post peptide treatment per manufactures' instructions (BD Biosciences, San Jose, Calif.). The caspase assays were performed in triplicate and repeated twice.
(§2) Myeloma cells were plated at a density of 400,000 cells per ml in a 24 well plate. Cells were treated with the indicated dose of the peptide for 24 hours. Following 24 hrs of peptide exposure, apoptotic cells were detected using Annexin V staining and FACS analysis. Ten thousand events were analyzed by flow cytometry (Becton Dickinson, San Jose, Calif.). Experiments were performed in triplicate and repeated twice. Shown is a representative figure.

ERK = assay: Activation of ERK signaling; conditions: for activation of ERK: 10 minutes post-treatment
Description: HYD1, when introduced as a soluble ligand, completely blocks random hapotaxis on laminin 322 and enhanced cellular signals are coupled with the loss of cell motility. […] Using this endpoint as an indicator of HYD1 bioactivity, the truncated and alanine-substituted variants of HYD1 were tested for their ability to activate ERK. Activation of ERK at 10 minutes post-treatment was conserved with alanine-substitution only at the N-terminal lysine and C-terminal glycine (FIG. 16A-1). […] Taken together (FIG. 16C-2), the results (FIGS. 16A-1, 16A-2, 16B, 16C-1) indicate that activation of ERK signaling required ikmviswxx (SEQ ID NO:48).

8226 cells = assay: Detection of apoptosis, annexin V staining and FACS, suspension culture; conditions: 24 hours, annexin V
Description: as §1
Detection of Apoptosis. A flow cytometric assay measuring Annexin V/PI staining was used to measure apoptotic cells following 24 hours of peptide exposure as previously described (Damiano J S et al. Blood, 1999; 93:1658-1667). The assay was performed in triplicate and 3 independent experiments were performed. Caspase 3 and 8 activity was measured at 6 and 24 hrs post peptide treatment per manufactures' instructions (BD Biosciences, San Jose, Calif.). The caspase assays were performed in triplicate and repeated twice.
as §2

Compound: CC(C)C[C@H](NC(=O)[C@H](Cc1ccccc1)NC(=O)c1cnccn1)B(O)O [velcade]
- resistance to drug induced cell death conferred by HS-5 stromal layer in the BMS model (MM1.S cells): sufficient to confer resistance

Compound: kmviswkg (KMVISWKG; HYD1 fragment)
- blocking cell migration (prostate tumor cell): approximately 50%

Compound: O=C1c2c(O)ccc(O)c2C(=O)c2c(NCCNCCO)ccc(NCCNCCO)c21 [mitoxantrone]
- resistance to drug induced cell death conferred by HS-5 stromal layer in the BMS model (MM1.S cells): sufficient to confer resistance

Compound: N[C@@H](Cc1ccc(N(CCCl)CCCl)cc1)C(=O)O [melphalan]
- resistance to drug induced cell death conferred by HS-5 stromal layer in the BMS model (MM1.S cells): sufficient to confer resistance
- mean percent apoptosis of plasma cells adhered to FN ([1]; 200 μM melphalan, bone marrow aspirates, adhered to FN prior to treatment): 27.7%
- mean percent apoptosis of plasma cells in suspension cultures ([1]; 200 μM melphalan, suspension cultures): 55.6%
- patient specimens protected from melphalan induced cell death when adherent to FN ([1]; compared to suspension cultures, ten patients): 9 out of 10
- protection from induced cell death by pan caspase inhibitor ZVAD-FMK (H929 cells): blocked the majority

Compound: kikmv (KIKMV; HYD1 fragment)
- ERK signal of N-terminal region compared with C-terminal region (ERK): stronger signal than iswkg
- activation of ERK (ERK): partial activation of ERK

Compound: ikmviswkg (IKMVISWKG; HYD1 fragment)
- blocking cell migration (prostate tumor cell): approximately 50%

Compound: kikmviswk ([dK][dI][dK][dM][dV][dI][dS][dW][dK]) [HYD1-g, C-terminus glycine deleted]
- blocking cell migration (prostate tumor cell): approximately 50%
- potency in inducing 8226 cell death compared to HYD1 (8226 cells): increased potency
- potency in inducing 8226 cell death compared to HYD1 (8226 cells; listed as kikmviswk): greater potency

Compound: iswkg (ISWKG; HYD1 fragment)
- activation of ERK (ERK): partial activation of ERK
